# Patent US20240294881A1, “CELL CULTURE SUPPLEMENT FOR PRODUCING STEM CELLS, AND METHOD FOR PRODUCING STEM CELLS” (OPTICELL, INC, priority 2021, published 2024)
# Assays:
# Type in all cases: cell-based
# [1] = test system: healthy human neonatal fibroblasts; experiment: Spheroid culture of healthy human neonatal fibroblasts in coated 6-well flat-bottom vessel, microscope observation; conditions: PS 6-well flat-bottom vessel coated with 0.125% solution; day 2 to day 20; uncoated control adhered and grew 2D
# Procedure: 2 mL of an aqueous solution of the polypeptide represented by formula (1) (0.125%) (cell culture supplement) was added to a commercial polystyrene-made 6-well flat-bottom culture vessel (CellBIND, Corning) and allowed to stand at 4° C. for 24 hours.
# Thereafter, the excess cell culture supplement was removed, and the remaining solution was dried in a dryer at 37° C. for 96 hours to complete coating treatment with the cell culture supplement. Healthy human neonatal fibroblasts (ATCC PCS-201-010, primary dermal fibroblasts, neonatal, referred to as “fibroblasts” below) were maintained and cultured in a serum-free medium (Promo Cell; fibroblast basal medium, basic-FGF 5 ng/mb and insulin 2.5 μg/mL). The fibroblasts floating in 2 mL of the medium were seeded in the culture vessel coated with the cell culture supplement at 2×10^6 cells/well and cultured at 37° C. under 5% CO2 conditions. For a control, fibroblasts were seeded in a culture vessel of the same type with no coating applied with the cell culture supplement (2×10^6 cells/well). Observation was performed with a microscope on day 2 and day 20 after the start of culture to capture images of spheroid formation (FIG. 5).
# [2] = test system: HOS-143 cells (human osteosarcoma cells); experiment: Three-dimensional spheroid culture of cancer cells, microscope observation; conditions: 6-well flat-bottom vessel coated with 0.125% solution; DMEM + 10% FBS; day 4 to day 15
# Procedure: (§1) Method 2 mL of an aqueous solution of the polypeptide represented by formula (1) (0.125%) (cell culture supplement) was added to a commercial polystyrene-made 6-well flat-bottom culture vessel (CellBIND, Corning) and allowed to stand at 4° C. for 24 hours.
# (§2) The cell culture supplement solution was then removed and the coated cell culture supplement was dried in a dryer at 37° C. for 96 hours to complete the cell culture supplement coating process. For human cancer cells, common cancer cell lines, A549 cells (human lung cancer cells, ATCC CCL-185, carcinoma), ES2 cells (human ovarian cancer cells, ATCC CRL-1978, clear cell carcinoma), and HOS-143 cells (human osteosarcoma cells, ATCC CRL-8303, osteosarcoma), were used. Each type of cancer cells was seeded in the culture vessel at 2×10^5 cells/well/[…] and cultured at 37° C. under 5% CO2. The medium for use was a DMEM medium supplemented with 10% FBS and penicillin/streptomycin. For a control, cancer cells were seeded in the same type of culture vessel that was not coated with the cell culture supplement at […]. Observation was performed with a microscope on day 4 and day 15 after the start of culture to capture images of spheroid formation (FIG. 18).
# [3] = test system: ES2 cells (human ovarian cancer cells); experiment: as above; conditions: 6-well flat-bottom vessel coated with 0.125% solution; DMEM + 10% FBS; day 4 to day 15
# Procedure: as §1, §2
# [4] = test system: A549 cells (human lung cancer cells); experiment: as above; conditions: 6-well flat-bottom vessel coated with 0.125% solution; DMEM + 10% FBS; day 4 to day 15
# Procedure: as §1, §2
# [5] = test system: healthy human adult skin fibroblasts; experiment: Real-time PCR of stem cell and triploblastic marker genes in adult skin fibroblast spheroids; conditions: day 20 of 3D spheroid culture, ΔΔCt
# Procedure: An aqueous solution of the polypeptide represented by formula (1) (0.125%) (cell culture supplement) was added to a commercial polystyrene-made 96-well round-bottom culture vessel (Nuncion Delta 96U Bottom, Thermo Fisher Scientific) and allowed to stand at 4° C. for 24 hours. The cell culture supplement solution was then removed and the coated cell culture supplement was dried in a dryer at 37° C. for 96 hours to complete the cell culture supplement coating process. Healthy human adult skin fibroblasts (Lonza, normal human dermal fibroblast-adult, referred to as “adult skin fibroblasts” below) were maintained and cultured in a serum-free medium (Fujifilm Wako Pure Chemical Corporation; DMEM/F12 medium, human serum albumin recombinant 0.5 mg/mL, human transferrin recombinant 10 μg/mL, basic-FGF 5 ng/ml, and insulin 2.5 μg/mL). Adult skin fibroblasts floating in 100 μL of the medium were seeded in the 96-well round-bottom culture vessel coated with the cell culture supplement at 2×10^4 cells/well and cultured at 37° C. under 5% CO2 conditions.
# The detection of stem cell marker genes was performed by analysis of the expression of mRNA by real-time PCR. Specifically, on day 20 from the start of culture, spheroids were collected in a 15-mL centrifuge tube and centrifuged, followed by washing the cells with phosphate buffered saline(−) and collecting the cells. Cells two-dimensionally cultured in a culture vessel not treated with the cell culture supplement (control) (day 0) were washed with PBS (−) after removal of the medium. The cells were detached from the plate with 0.05% trypsin-EGTA and dissociated, followed by collecting the cells in a 15-mL centrifuge tube and washing again with PBS(−) again. A NucleoZOL (Macherey-Nagel) reagent was added to the spheroids, and RNA was extracted according to the protocol recommended by the reagent manufacturer and determined to be template RNA. For real-time PCR analysis, PCR probes from QuantiFast Probe RT-PCR Kits (QIAGEN; No. 204454) and TaqMan Gene Expression Assay Probe (Thermo Fisher Scientific) were used. PCR analysis was performed with a Rotor-Gene Q (QIAGEN) apparatus. For detection of genes, three transcription factors were used as probes for detecting the expression of undifferentiated stem cell marker genes: SOX2 (sex-determining region Y-box 2), OCT4 (octamer binding transcription factor 4), and NANOG (homeodomain transcription factor); and β-actin was used as an endogenous control gene (FIG. 13).
# To determine whether stem cells induced in spheroids can differentiate into primordial three germ layers, the expression of triploblastic marker genes was examined by real-time PCR. For probes for detection, the following four triploblastic marker genes were used: SOX17 (sex-determining region Y-box 17; endoderm), GATA6 (GATA family of zinc finger transcription factors; endoderm), HAND1 (heart-and neural crest derivatives-expressed protein 1; mesoderm), and SOX1 (HMG-box (high mobility group) DNA-binding domain; ectoderm). For an endogenous control gene, TaqMan Gene Expression Assay Probe (ß-actin) was used (FIG. 14). In the gene expression analysis, relative quantification was performed according to the ΔΔCt method (Delta Delta Ct method). The results of analysis according to the ΔΔCt method show the amount of a gene expressed by control cells under the conditions of “no cell culture supplement, flat-bottom 2D growth, day 0” as “1.0” in relative terms, and the increase rate in “the expression level in spheroid proliferation on day 20” was determined by comparison.
substance,measurement,setting,value
(Pro-Hyp-Gly)n [cell culture supplement],spheroid formation,[1],formed spheroids
same,spheroid formation,[2],form spheroids
same,spheroid formation,[3],form spheroids
same,spheroid formation,[4],form spheroids
same,NANOG gene expression level (increase vs control),[5]; 2D control cells = 1.0,50.5 fold
same,OCT4 gene expression level (increase vs control),[5]; 2D control cells = 1.0,13.0 fold
same,SOX2 gene expression level (increase vs control),[5]; 2D control cells = 1.0,9.4 fold
same,GATA6 gene expression level (increase vs control),[5]; control cells = 1.0,2.2 fold
same,HAND1 gene expression level (increase vs control),[5]; control cells = 1.0,33.9 fold
same,SOX1 gene expression level (increase vs control),[5]; control cells = 1.0,7.1 fold
same,SOX17 gene expression level (increase vs control),[5]; control cells = 1.0,11.4 fold
